Measured values reported in patent US20140357860A1, “SALT OF IVABRADINE WITH ADIPIC ACID” (ratiopharm GmbH, priority 2010, published 2014).
Structures can show the parent of a compound that is named as a salt. Blank lines part the entries; values can stand above or below the molecule they belong to.

What was measured:
[1] = Stability of the solid form on storage at different temperatures and humidities, open or closed containers; format: physicochemical; conditions: for Stability, summary in words: various conditions of temperature, humidity and container
From the text: The stability of ivabradine adipate in comparison to ivabradine hydrochloride form I was investigated at different temperatures and humidities in open or closed containers for different storage times.

[2] = under physiological conditions; cited from earlier work

- Stability (solid form after storage) ([1]; 25° C./60% closed, 33 d): unchanged
- Stability (solid form after storage) ([1]; 25° C./60% open, 33 d): β + unident.
- Stability (solid form after storage) ([1]; 30° C./65% closed, 33 d): unchanged
- Stability (solid form after storage) ([1]; 30° C./65% open, 33 d): β
- Stability (solid form after storage) ([1]; 40° C./75% closed, 33 d): unchanged
- Stability (solid form after storage) ([1]; 40° C./75% open, 33 d): β
SMILES: COc1cc2c(cc1OC)CC(=O)N(CCCN(C)C[C@H]1Cc3cc(OC)c(OC)cc31)CC2 [Ivabradine HCl form I, Ivabradine HCl]
- Stability, summary in words ([1]; HCl): undergoes phase transition into Ivabradine HCl, form beta

- Stability (solid form after storage) ([1]; 25° C./60% closed, 57 d): unchanged
- Stability (solid form after storage) ([1]; 25° C./60% open, 57 d): unchanged
- Stability (solid form after storage) ([1]; 30° C./65% closed, 57 d): unchanged
- Stability (solid form after storage) ([1]; 30° C./65% open, 57 d): unchanged
- Stability (solid form after storage) ([1]; 40° C./75% closed, 57 d): unchanged
- Stability (solid form after storage) ([1]; 40° C./75% open, 57 d): unchanged
- Stability, summary in words [1]: stable
SMILES: COc1cc2c(cc1OC)CC(=O)N(CCCN(C)C[C@H]1Cc3cc(OC)c(OC)cc31)CC2 [Ivabradine adipate, Ivabradine Adipate]

SMILES: COc1cc2c(cc1OC)CC(=O)N(CCCN(C)C[C@H]1Cc3cc(OC)c(OC)cc31)CC2 [Ivabradine, (S)-3-{3-[(3,4-dimethoxybicyclo[4.2.0]octa-1,3,5-trien-7-ylmethyl)methylamino]propyl}-7,8-dimethoxy-2,3,4,5-tetrahydro-1H-3-benzazepin-2-one]
- water solubility [2]: > 10000 µg/mL
